The text below walks through data of patent US9681664B2, “Macrocyclic picolinamides as fungicides” (Dow Agrosciences LLC, priority 2012, dated 2017).

In assay [1] the test system is Mycosphaerella graminicola; Anamorph: Septoria tritici. Put plainly: Leaf blotch of wheat (SEPTTR) disease control on wheat seedlings. It is filed as in vivo. As to conditions: Zymoseptoria tritici, High volume application, 100 ppm. Here is the method: Technical grades of materials were dissolved in acetone, which were then mixed with nine volumes of water containing 110 ppm Triton X-100. The fungicide solutions were applied onto wheat seedlings using an automated booth sprayer to run-off. All sprayed plants were allowed to air dry prior to further handling. All fungicides were evaluated using the aforementioned method for their activity vs. all target diseases. Wheat leaf blotch and brown rust activity were also evaluated using track spray applications, in which case the fungicides were formulated as EC formulations, containing 0.1% Trycol 5941 in the spray solutions. Wheat plants (variety Yuma) were grown from seed in a greenhouse in 50% mineral soil/50% soil-less Metro mix until the first leaf was fully emerged, with 7-10 seedlings per pot. These plants were inoculated with an aqueous spore suspension of Septoria tritici either prior to or after fungicide treatments. After inoculation the plants were kept in 100% relative humidity (one day in a dark dew chamber followed by two to three days in a lighted dew chamber at 20° C.) to permit spores to germinate and infect the leaf. The plants were then transferred to a greenhouse set at 20° C. for disease to develop. When disease symptoms were fully expressed on the 1st leaves of untreated plants, infection levels were assessed on a scale of 0 to 100 percent disease severity. Percent disease control was calculated using the ratio of disease severity on treated plants relative to untreated plants.

The subject of assay [2] is Puccinia triticina; Synonym: Puccinia recondite f. sp. tritici. Put plainly: Wheat brown rust (PUCCRT) disease control on wheat seedlings. It is filed as in vivo. As to conditions: Puccinia triticina, High volume application, 100 ppm. Here is the method: Technical grades of materials were dissolved in acetone, which were then mixed with nine volumes of water containing 110 ppm Triton X-100. The fungicide solutions were applied onto wheat seedlings using an automated booth sprayer to run-off. All sprayed plants were allowed to air dry prior to further handling. All fungicides were evaluated using the aforementioned method for their activity vs. all target diseases. Wheat leaf blotch and brown rust activity were also evaluated using track spray applications, in which case the fungicides were formulated as EC formulations, containing 0.1% Trycol 5941 in the spray solutions. Wheat plants (variety Yuma) were grown from seed in a greenhouse in 50% mineral soil/50% soil-less Metro mix until the first leaf was fully emerged, with 7-10 seedlings per pot. These plants were inoculated with an aqueous spore suspension of Puccinia triticina either prior to or after fungicide treatments. After inoculation the plants were kept in a dark dew room at 22° C. with 100% relative humidity overnight to permit spores to germinate and infect the leaf. The plants were then transferred to a greenhouse set at 24° C. for disease to develop. Fungicide formulation, application and disease assessment followed the procedures as described in the Example A.

The mark [3] stands for this setting: 24 h, 1 Day Protectant, read-out: SEPTTR 1DP disease control.
The mark [4] stands for this setting: 72 h, 3 Day Curative, read-out: SEPTTR 3DC disease control.
Setting [5] is: 24 h, 1 Day Protectant, read-out: PUCCRT 1DP disease control.
The mark [6] stands for this setting: 72 h, 3 Day Curative, read-out: PUCCRT 3DC disease control.

Where two headings read alike, the source gives them in different places.

Take `COc1ccc(O[C@H]2[C@H](C)OC(=O)[C@@H](NC(=O)c3nccc(OC)c3OCOC(C)=O)CCC[C@@H]2Oc2ccc(OC)cc2)cc1` [F66]: the pest or weed control at 100 ppm in assay [1] (setting [3]) fell in the range of 80 to 100%; in assay [1] (setting [4]) it was 0 to 80%; in assay [2] (setting [5]), 80 to 100%; in assay [2] (setting [6]), 80 to 100%.

Turning to `COc1ccc(O[C@H]2[C@H](C)OC(=O)[C@@H](NC(=O)c3nccc(OC)c3OCOC(=O)C(C)C)CCC[C@@H]2Oc2ccc(OC)cc2)cc1` [F67], the pest or weed control at 100 ppm fell in the range of 80 to 100% in assay [1] (setting [3]), 0 to 80% in assay [1] (setting [4]), 80 to 100% in assay [2] (setting [5]) and 80 to 100% in assay [2] (setting [6]).

Consider `COc1ccc(O[C@H]2CCC[C@H](NC(=O)c3nccc(OC)c3OCOC(=O)C(C)C)C(=O)O[C@@H](C)[C@@H]2OCC(C)C)cc1` [F69], for which the pest or weed control at 100 ppm in assay [1] (setting [3]), in assay [1] (setting [4]), in assay [2] (setting [5]) and in assay [2] (setting [6]) was 80 to 100% throughout.

In the case of `CCCCCO[C@H]1[C@H](C)OC(=O)[C@@H](NC(=O)c2nccc(CC)c2O)CCC[C@@H]1OCC(C)C` [F70], the pest or weed control at 100 ppm in assay [1] (setting [3]), in assay [1] (setting [4]), in assay [2] (setting [5]) and in assay [2] (setting [6]) was 0 to 80% in each case.

Regarding `CCc1ccnc(C(=O)N[C@H]2CCC[C@H](OCC(C)C)[C@@H](OCCC(C)OC)[C@H](C)OC2=O)c1O` (stereo partly shown) [F71], the pest or weed control at 100 ppm is 0 to 80% in assay [1] (setting [3]), 0 to 80% in assay [1] (setting [4]), 0 to 80% in assay [2] (setting [5]) and 80 to 100% in assay [2] (setting [6]).

As to `COc1ccnc(C(=O)N[C@H]2CCC[C@H](OCC(C)C)[C@@H](OCCC(C)OC)[C@H](C)OC2=O)c1OCOC(C)=O` (stereo partly shown) [F72], the pest or weed control at 100 ppm in assay [1] (setting [3]), in assay [1] (setting [4]), in assay [2] (setting [5]) and in assay [2] (setting [6]) was 80 to 100% throughout.

Consider `COc1ccnc(C(=O)N[C@H]2CCC[C@H](OC3CCCC3)[C@@H](Oc3ccccc3)[C@H](C)OC2=O)c1O` [F74], for which the pest or weed control at 100 ppm in assay [1] (setting [3]), in assay [1] (setting [4]), in assay [2] (setting [5]) and in assay [2] (setting [6]) was 80 to 100% each time.

`COc1ccnc(C(=O)N[C@H]2CCC[C@H](Oc3ccccc3)[C@@H](OC3CCCC3)[C@H](C)OC2=O)c1O` [F75]: the pest or weed control at 100 ppm in assay [1] (setting [3]), in assay [1] (setting [4]), in assay [2] (setting [5]) and in assay [2] (setting [6]) was 80 to 100% in each case.

Turning to `COc1ccnc(C(=O)N[C@H]2CCC[C@H](OCC(C)C)[C@@H](Oc3ccc(C)cc3)[C@H](C)OC2=O)c1O` [F82], the pest or weed control at 100 ppm in assay [1] (setting [3]) was less than 0%; in assay [1] (setting [4]) it was 0 to 80%; in assay [2] (setting [5]), 0 to 80%; in assay [2] (setting [6]) it was 0 to 80%.

As for `COc1ccnc(C(=O)N[C@H]2CCC[C@H](OCC(C)C)[C@@H](OCCC(C)OC)[C@H](C)OC2=O)c1OC(C)=O` (stereo partly shown) [F83], the pest or weed control at 100 ppm in assay [1] (setting [3]), in assay [1] (setting [4]), in assay [2] (setting [5]) and in assay [2] (setting [6]) was 80 to 100% in each case.

As to `COc1ccnc(C(=O)N[C@H]2CCC[C@H](OC(=O)C3CCCC3)[C@@H](OC(=O)C3CCCC3)[C@H](C)OC2=O)c1O` [F84], the pest or weed control at 100 ppm in assay [1] (setting [3]), in assay [1] (setting [4]), in assay [2] (setting [5]) and in assay [2] (setting [6]) was 0 to 80% in each case.

As for `COc1ccnc(C(=O)N[C@H]2CCC[C@H](OCCCC(F)(F)F)[C@@H](OCCCC(F)(F)F)[C@H](C)OC2=O)c1O` [F85], the pest or weed control at 100 ppm in assay [1] (setting [3]) was less than 0%; in assay [1] (setting [4]), 0 to 80%; in assay [2] (setting [5]), less than 0%; in assay [2] (setting [6]), 0 to 80%.

For `COc1ccnc(C(=O)N[C@H]2CCC[C@H](OCC(C)C)[C@@H](Oc3ccc(C)cc3)[C@H](C)OC2=O)c1OCOC(C)=O` [F86], the pest or weed control at 100 ppm in assay [1] (setting [3]), in assay [1] (setting [4]), in assay [2] (setting [5]) and in assay [2] (setting [6]) was 80 to 100% throughout.

As to `COc1ccnc(C(=O)N[C@H]2CCC[C@H](OCCCC(F)(F)F)[C@@H](OCCCC(F)(F)F)[C@H](C)OC2=O)c1OCOC(C)=O` [F87], the pest or weed control at 100 ppm in assay [1] (setting [3]), in assay [1] (setting [4]), in assay [2] (setting [5]) and in assay [2] (setting [6]) was 80 to 100% throughout.

Take `COc1ccnc(C(=O)N[C@H]2CCC[C@H](OC(=O)C3CCCC3)[C@@H](OC(=O)C3CCCC3)[C@H](C)OC2=O)c1OCOC(C)=O` [F88]: the pest or weed control at 100 ppm in assay [1] (setting [3]), in assay [1] (setting [4]), in assay [2] (setting [5]) and in assay [2] (setting [6]) was 80 to 100% each time.

As for `CCCCCO[C@H]1[C@H](C)OC(=O)[C@@H](NC(=O)c2nccc(OC)c2OC(C)=O)CCC[C@@H]1OCC(C)C` [F89], the pest or weed control at 100 ppm in assay [1] (setting [3]), in assay [1] (setting [4]), in assay [2] (setting [5]) and in assay [2] (setting [6]) was 80 to 100% throughout.

Regarding `COc1ccnc(C(=O)N[C@H]2CCC[C@H](OCCCC(F)(F)F)[C@@H](OCCCC(F)(F)F)[C@H](C)OC2=O)c1OC(C)=O` [F90], the pest or weed control at 100 ppm in assay [1] (setting [3]), in assay [1] (setting [4]), in assay [2] (setting [5]) and in assay [2] (setting [6]) was 80 to 100% in each case.

For `COc1ccnc(C(=O)N[C@H]2CCC[C@H](OC(=O)C3CCCC3)[C@@H](OC(=O)C3CCCC3)[C@H](C)OC2=O)c1OC(C)=O` [F91], the pest or weed control at 100 ppm in assay [1] (setting [3]), in assay [1] (setting [4]), in assay [2] (setting [5]) and in assay [2] (setting [6]) was 80 to 100% each time.

Consider `COc1ccnc(C(=O)N[C@H]2CCC[C@H](OCC(C)C)[C@@H](Oc3ccc(C)cc3)[C@H](C)OC2=O)c1OC(C)=O` [F92], for which the pest or weed control at 100 ppm in assay [1] (setting [3]), in assay [1] (setting [4]), in assay [2] (setting [5]) and in assay [2] (setting [6]) was 80 to 100% throughout.

`CCCO[C@H]1[C@H](C)OC(=O)[C@@H](NC(=O)c2nccc(OC)c2O)CCC[C@@H]1Oc1ccccc1` [F93]: the pest or weed control at 100 ppm in assay [1] (setting [3]), in assay [1] (setting [4]), in assay [2] (setting [5]) and in assay [2] (setting [6]) was 80 to 100% throughout.

As to `CCCCCO[C@H]1[C@H](C)OC(=O)[C@@H](NC(=O)c2nccc(OC)c2O)CCC[C@@H]1Oc1ccccc1` [F94], the pest or weed control at 100 ppm in assay [1] (setting [3]) is 0 to 80%; in assay [1] (setting [4]), 0 to 80%; in assay [2] (setting [5]), 0 to 80%; in assay [2] (setting [6]), less than 0%.

With `CCCCCO[C@H]1[C@H](C)OC(=O)[C@@H](NC(=O)c2nccc(OC)c2OCOC(C)=O)CCC[C@@H]1Oc1ccccc1` [F96], the pest or weed control at 100 ppm in assay [1] (setting [3]), in assay [1] (setting [4]), in assay [2] (setting [5]) and in assay [2] (setting [6]) was 80 to 100% throughout.

Consider `CCCO[C@H]1[C@H](C)OC(=O)[C@@H](NC(=O)c2nccc(OC)c2OCOC(=O)C(C)C)CCC[C@@H]1Oc1ccccc1` [F97], for which the pest or weed control at 100 ppm in assay [1] (setting [3]), in assay [1] (setting [4]), in assay [2] (setting [5]) and in assay [2] (setting [6]) was 80 to 100% each time.

Consider `CCCCCO[C@H]1[C@H](C)OC(=O)[C@@H](NC(=O)c2nccc(OC)c2OCOC(=O)C(C)C)CCC[C@@H]1Oc1ccccc1` [F98], for which the pest or weed control at 100 ppm in assay [1] (setting [3]), in assay [1] (setting [4]), in assay [2] (setting [5]) and in assay [2] (setting [6]) was 80 to 100% each time.

Turning to `COc1ccnc(C(=O)N[C@H]2CCC[C@H](OC(=O)C3CCCC3)[C@@H](OC(=O)C3CCCC3)[C@H](C)OC2=O)c1OCOC(=O)C(C)C` [F99], the pest or weed control at 100 ppm in assay [1] (setting [3]), in assay [1] (setting [4]), in assay [2] (setting [5]) and in assay [2] (setting [6]) was 80 to 100% each time.
